Target: T1, TPα^S239A (Homo sapiens, UniProt P21731, S239A)
T1 construct: expressed in transfected cells
T1 sequence (P21731 1-343 S239A): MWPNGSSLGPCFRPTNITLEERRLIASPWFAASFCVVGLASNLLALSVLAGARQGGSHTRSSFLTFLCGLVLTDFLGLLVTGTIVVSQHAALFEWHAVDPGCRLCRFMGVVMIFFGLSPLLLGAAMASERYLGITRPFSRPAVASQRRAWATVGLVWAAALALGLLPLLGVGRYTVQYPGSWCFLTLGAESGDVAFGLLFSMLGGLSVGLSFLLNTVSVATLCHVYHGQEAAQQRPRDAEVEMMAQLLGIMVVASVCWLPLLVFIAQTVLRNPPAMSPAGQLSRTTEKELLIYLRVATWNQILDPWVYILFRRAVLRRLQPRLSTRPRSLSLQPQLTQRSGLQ
Assay: Intracellular calcium mobilization, HEK.TPα^S239A cells
Assay type: cell-based
Protocol: Measurement of intracellular calcium mobilization ([Ca^2+]i) in FURA2/AM preloaded HEK 293 cell lines (2 × 10^6 cells/dish), each transiently co-transfected with pADVA (10 μg), and pCMV:Gαq (25 μg), was carried out as previously described. To investigate the effect of GRK2/βARK1 on TP-mediated [Ca^2+]i mobilization, HEK.TPα or HEK.TPβ cells (2 × 10^6 cells/dish) were co-transfected with pADVA (10 μg), pCMV:Gαq (25 μg) along with pRK5:βARK1^495–689 (25 μg), encoding a dominant negative form of GRK2/βARK1[39]. Approximately 48 h post-transfection, cells were harvested by scraping, washed twice in ice-cold PBS and resuspended in HBSSHB (modified Ca^2+/Mg^2+-free Hank's buffered salt solution, containing […], pH 7.67, 0.1% bovine serum albumin (BSA)) buffer at 10^7 cells/ml and incubated in the dark with 5 μM FURA2/AM for 45 min at 37 °C. Cells were collected by centrifugation (900×g, 5 min), washed once in an equal volume of HBSSHB, and were finally resuspended in HBSSHB buffer at 10^7 cells/ml and kept at room temperature in the dark for 40 min. For each measurement of [Ca^2+]i mobilization, aliquots of cells were diluted to 0.825 × 10^6 cells/ml in HBSSHB, 1 mM CaCl2 and FURA2 fluorescence was recorded (2 ml aliquots of cells) at 37^ °C with gentle stirring with a Perkin Elmer-Cetus LS50-B spectrofluorometer at excitation wavelengths of 340 nm and 380 nm and emission wavelength of 510 nm, respectively.
Cells were stimulated with the TP agonist U46619 (1 μM) and changes in [Ca^2+]i mobilization were monitored as a function of time. To assess agonist-mediated homologous desensitization, cells (0.825 × 10^6 cells/ml; 2 ml per assay) were stimulated with 1 μM U46619 (Primary stimulation) or, as a control, with the vehicle for 4 min; thereafter, cells were collected by centrifugation (900×g, 5 min); were washed twice in 2 ml HBSSHB, 1 mM CaCl2; and finally resuspended in 2 ml HBSSHB,1 mM CaCl2 and were left to recover over various time intervals (ranging from 0 to 60 min); thereafter, cells re-stimulated with 1 μM U46619 (Secondary stimulation) and changes in [Ca^2+]i mobilization were monitored as a function of time. […]
The vehicle had no effect on U46619-mediated [Ca^2+]i mobilization. Calibration of the signal was performed in each sample by adding 0.2% Triton X-100 to obtain the maximal fluorescence ratio (Rmax) and then 1 mM EGTA to obtain the minimal fluorescence ratio (Rmin). […] Changes in [Ca^2+]i mobilization were determined by measuring peak rises in [Ca^2+]i mobilized (Δ[Ca^2+]i) and were calculated as mean changes in Δ[Ca^2+]i ± S.E.M. (nM).

Compound: CCCCC[C@H](O)/C=C/[C@@H]1[C@@H](C/C=C\CCCC(=O)O)[C@H]2CO[C@@H]1C2 [U46619]
- Δ[Ca2+]i, U46619-induced (+ GRK^DN, primary 1 μM U46619): 180 ± 9 nM
- Δ[Ca2+]i, U46619-induced (+ GRK^DN, secondary 1 μM U46619 at 15 min): 0 nM
- Δ[Ca2+]i, U46619-induced (− GRK^DN, primary 1 μM U46619): 176 ± 10.3 nM
- Δ[Ca2+]i, U46619-induced (− GRK^DN, secondary 1 μM U46619 at 15 min): 0 nM
